Source: patent publication US20130323776A1, “CARRIER PEPTIDE FRAGMENT AND USE THEREOF” (Toagosei Co. Ltd., priority 2009, published 2013)
Ends that are not written are not given here. * marks the point of attachment. FITC = O=C1OC2(c3ccc(O)cc3Oc3cc(O)ccc32)c2ccc(NC(=S)*)cc21; Acp = not defined here

Key:
[1] = test system: Human neonate foreskin fibroblasts (ATCC Catalogue No. CRL-2097); assay: Evaluation of cell membrane permeability function, confocal laser scanning microscopy of fluorescently labeled peptide; format: cell-based; conditions: 1 μM peptide, 1 or 4 hours culture; for penetration of the cell membrane from outside the cell and transfer into the cytoplasm: methanol fixed
Protocol: Human neonate foreskin fibroblasts (ATCC Catalogue No. CRL-2097) were used as the eukaryotic cells, and the cell membrane permeability capability of the samples (constructs for transferring a foreign substance) obtained in Example 1 above was investigated.
More specifically, the abovementioned fibroblasts were cultured in a liquid mixture of 90% Eagle MEM culture medium (containing 0.1% nonessential amino acids, 2 mM L-glutamine, 1 mM sodium pyruvate, and 1.5 g/L sodium hydrogen carbonate) and 10% serum (FBS) as the culture medium.
The cultured cells were trypsinized for 1 min at 37° C. with a 0.25% trypsin solution. After the abovementioned treatment, the trypsin was deactivated with FBS-containing medium, and a cell suspension (test sample for foreign substance transfer) was prepared by adjusting the cell concentration to approximately 5×10^4 cells/mL with the culture medium.
Next, 0.5 mL of the abovementioned cell suspension was placed in a designated cell culturing container (culture slide with a surface coating of 0.1% gelatin), and the cells were incubated overnight at 37° C. in a 5% CO2 atmosphere. After incubation the medium was replaced with fresh culture medium, and the 1 mM sample solutions of each of the samples prepared in abovementioned Example 1 were added to a cell culture container so that the final sample concentration (peptide concentration) would be 1 μM. In this case 0.5 μL of sample solution was added to the container. Then the samples were incubated at 37° C. for either 1 or 4 hours in a 5% CO2 atmosphere.
The cells after 1 hour of culture and the cells after 4 hours of culture were each rinsed in PBS and fixed with methanol (on ice for 10 min).
Next the methanol-fixed samples (cells) were mounted using Prolong® Gold Antifade Reagent (Invitrogen) that contains the nuclear stain DAPI (4′,6-diamidino-2-phenylindole). Then the localization within the cells of the peptide bonded to the fluorescent dye (i.e., fluorescently labeled peptide) in each test sample (i.e., the abovementioned mounted test samples after methanol fixation) was investigated using a confocal scanning laser microscope. Part of the results are presented herein as micrographs.

[2] = test system: human iPS cells (cell line 201B2-082008KU); assay: Evaluation of cell membrane permeability function in iPS cells, confocal laser scanning microscopy of fluorescently labeled peptide; format: cell-based; conditions: 1 μM peptide, 1 or 4 hours culture; for penetration of the cell membrane from outside the cell and transfer into the cytoplasm of iPS cells: human iPS cells on MEF feeder cells, methanol fixed; for foreign substance transfer efficiency toward stem cells such as iPS cells: human iPS cells
Text: The target cells for transferring the foreign substance were changed from human neonate foreskin fibroblasts to human iPS cells (human induced pluripotent stem cells), and the cell membrane permeability capability of the two samples (constructs for transferring a foreign substance) obtained in Example 1 above was investigated. It should also be noted that the iPS cells (cell line 201B2-082008KU) and the mouse embryonic fibroblast feeder cells (cell line SNL 76/7, hereinafter “MEF”) used in this example were provided by the Yamanaka Research Laboratory of the Institute for Frontier Medical Sciences, Kyoto University (professor Shinya Yamanaka).
First the obtained MEF were inactivated by a mitomycin C treatment (3 hours) and then trypsinised in a 0.25% trypsin solution containing 1 mM EDTA. After the above treatment, the trypsin was deactivated with culture medium containing FBS, and the MEF were adjusted to a suitable cell density using D-MEM medium (Dulbecco's Modified Eagle Medium: Gibco) containing MEF culture medium (7% FBS: Gibco), 2 mM L-glutamine (Gibco), 50 units/mL penicillin, and 50 μg/mL streptomycin (Gibco), and the abovementioned MEF were seeded onto a culture container (in the form of a culture slide or plate) with a surface coating of 0.1% gelatin. In this case, the MEF were seeded so that the cell density would be approximately 1.25×10^5 cells/mL. Next, the abovementioned cell culture containers were incubated overnight at 37° C. in a 5% CO2 atmosphere.
Thereafter, the feeder cells were prepared by removing the MEF culture medium and rinsing with PBS.
Separately, CTK solution (0.25% trypsin solution containing 0.1 mg/mL collagenase IV (Gibco), 1 mM calcium chloride, and 20% KSR (KnockOut® Serum Replacement)) was added to the obtained iPS cell line, the MEF were peeled therefrom, and the cells were rinsed with PBS.
Next, 1 mL hESC culture medium (i.e., human ES cell medium, in this case, DMEM/F12 culture medium (Gibco) containing 20% KSR (Gibco), 2 mM L-glutamine (Gibco), 0.1% nonessential amino acids (Gibco), 0.1 mM 2-mercaptoethanol (Gibco), 50 units/mL penicillin, and 50 μg/mL streptomycin (Invitrogen, 4 ng/mL bFGF (basic fibroblast growth factor)) was added, the iPS cells were peeled off using a cell scraper, and the colony was broken apart by gentle pipetting.
A suspension of iPS cells obtained in this manner was seeded onto the feeder cells in the culture containers that had been prepared as described above. Then, the above-mentioned hESC medium was added, and the cell culture containers were incubated overnight at 37° C. in a 5% CO2 atmosphere.
After incubation overnight, the culture medium was removed from the culture containers, and the abovementioned hESC medium to which one of the 1 mM sample solutions prepared in abovementioned. Example 1 had been added to make a final sample concentration (pipetted concentration) of 1 μM was added to the culture containers. Then the samples were incubated at 37° C. for either 1 or 4 hours in a 5% CO2 atmosphere.
The cells after 1 hour of culture and cells after 4 hours of culture were each rinsed in PBS (phosphate buffered saline) and fixed with methanol (on ice for 10 min).
Next, the same treatment as in Example 2 was performed, and the localization within the iPS cells of the peptide that was bonded to the fluorescent dye (i.e., fluorescently labeled) was investigated using a confocal scanning laser microscope. Part of the results are presented herein as micrographs.

(FITC-Acp)-RRRKRNRDARRRRRKQ ({FITC-Acp}-RRRKRNRDARRRRRKQ; reading uncertain; also: printed as (FITC-Acp)-RRRKRNRDARRRRRKQ) [Sample No. 5]
penetration of the cell membrane from outside the cell and transfer into the cytoplasm [1]: transferred into the cytoplasm

(FITC-Acp)-RSRKYTSWYVALKRTLKERCLQVVRSLVK ({FITC-Acp}-RSRKYTSWYVALKRTLKERCLQVVRSLVK; not fully specified (C-terminus); printed as (FITC-Acp)-RSRKYTSWYVALKRTLKERCLQVVRSLVK; reading uncertain) [Sample No. 14]
penetration of the cell membrane from outside the cell and transfer into the cytoplasm of iPS cells [2]: transferred into the cytoplasm of iPS cells
foreign substance transfer efficiency toward somatic cells such as fibroblasts [1]: extremely high
penetration of the cell membrane from outside the cell and transfer into the cytoplasm [1]: transferred into the cytoplasm

(FITC-Acp)-KKLKKRNK ({FITC-Acp}-KKLKKRNK; not fully specified (C-terminus); printed as (FITC-Acp)-KKLKKRNK; reading uncertain) [Sample No. 8]
penetration of the cell membrane from outside the cell and transfer into the cytoplasm of iPS cells [2]: almost no passage through the cell membrane
penetration of the cell membrane from outside the cell and transfer into the cytoplasm [1]: almost no passage through the cell membrane

(FAM)-MQRKPTIRRKNLRLRRK ({FAM}-MQRKPTIRRKNLRLRRK; not fully specified (C-terminus); printed as (FAM)-MQRKPTIRRKNLRLRRK) [Sample No. 6]
penetration of the cell membrane from outside the cell and transfer into the cytoplasm of iPS cells [2]: transferred into the cytoplasm of iPS cells
foreign substance transfer efficiency toward stem cells such as iPS cells [2]: extremely high
foreign substance transfer efficiency toward somatic cells such as fibroblasts [1]: extremely high
penetration of the cell membrane from outside the cell and transfer into the cytoplasm [1]: transferred into the cytoplasm

(FITC-Acp)-IMRRRGL ({FITC-Acp}-IMRRRGL; not fully specified (C-terminus); printed as (FITC-Acp)-IMRRRGL; reading uncertain) [Sample No. 7]
penetration of the cell membrane from outside the cell and transfer into the cytoplasm of iPS cells [2]: almost no passage through the cell membrane
penetration of the cell membrane from outside the cell and transfer into the cytoplasm [1]: almost no passage through the cell membrane

(FAM)-MAKSIRSKHRRQMRMMKRE ({FAM}-MAKSIRSKHRRQMRMMKRE; not fully specified (C-terminus); printed as (FAM)-MAKSIRSKHRRQMRMMKRE) [Sample No. 2]
penetration of the cell membrane from outside the cell and transfer into the cytoplasm [1]: transferred into the cytoplasm

(FITC-Acp)-GRCRRLANFGPRKRRRRRR ({FITC-Acp}-GRCRRLANFGPRKRRRRRR; not fully specified (C-terminus); printed as (FITC-Acp)-GRCRRLANFGPRKRRRRRR; reading uncertain) [Sample No. 4]
penetration of the cell membrane from outside the cell and transfer into the cytoplasm of iPS cells [2]: transferred into the cytoplasm of iPS cells
foreign substance transfer efficiency toward stem cells such as iPS cells [2]: extremely high
foreign substance transfer efficiency toward somatic cells such as fibroblasts [1]: extremely high
penetration of the cell membrane from outside the cell and transfer into the cytoplasm [1]: transferred into the cytoplasm

(FITC-Acp)-MARRRRHRGPRRPRPP ({FITC-Acp}-MARRRRHRGPRRPRPP; reading uncertain; also: printed as (FITC-Acp)-MARRRRHRGPRRPRPP) [Sample No. 3]
penetration of the cell membrane from outside the cell and transfer into the cytoplasm [1]: transferred into the cytoplasm
